Laboratory results taken from patent US20250136578A1 (Kolm Therapeutics Inc., priority 2023, published 2025).
Like-named read-outs stand apart in the source and are kept apart here.

Experiments:
VCaP cells = assay: VCaP growth inhibition assay (CTG); format: cell-based; settings: Homo sapiens, 216 h, 30 pM R1881, 9 days
Summary of the method: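 VCaP cells in phenol red-free DMEM with 5% charcoal-stripped serum were stimulated with 30 pM R1881 (final) and treated with compound from 100 nM to 10 fM final (1:5 dilutions) for 9 days at 37 °C. Viability was read by CellTiter-Glo luminescence, and IC50 came from 4-parameter logistic fits.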

AR / CBP ternary complex = AR / CBP ternary complex (Homo sapiens, UniProt P10275+Q92793); assay: Ternary complex formation assay (sandwich ELISA, AR capture, CBP antibody detection) in VCaP cell lysates; format: cell-based
Summary of the method: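 VCaP cells in 5% charcoal-stripped FBS were cultured ≥3 days and then given bifunctional compound for 1.5 h. Lysates went onto AR-antibody-coated plates. Bound CBP (or p300) was detected with a rabbit antibody plus HRP anti-rabbit, using QuantaRed chemifluorescence (ex 570/em 585) read immediately, at 5 min and at 15 min.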

[1] = treated 1.5 hours, rabbit CBP or p300 antibody detection, average, read-out: Average Ternary Complex

Sequence of AR / CBP ternary complex (P10275 whole entry): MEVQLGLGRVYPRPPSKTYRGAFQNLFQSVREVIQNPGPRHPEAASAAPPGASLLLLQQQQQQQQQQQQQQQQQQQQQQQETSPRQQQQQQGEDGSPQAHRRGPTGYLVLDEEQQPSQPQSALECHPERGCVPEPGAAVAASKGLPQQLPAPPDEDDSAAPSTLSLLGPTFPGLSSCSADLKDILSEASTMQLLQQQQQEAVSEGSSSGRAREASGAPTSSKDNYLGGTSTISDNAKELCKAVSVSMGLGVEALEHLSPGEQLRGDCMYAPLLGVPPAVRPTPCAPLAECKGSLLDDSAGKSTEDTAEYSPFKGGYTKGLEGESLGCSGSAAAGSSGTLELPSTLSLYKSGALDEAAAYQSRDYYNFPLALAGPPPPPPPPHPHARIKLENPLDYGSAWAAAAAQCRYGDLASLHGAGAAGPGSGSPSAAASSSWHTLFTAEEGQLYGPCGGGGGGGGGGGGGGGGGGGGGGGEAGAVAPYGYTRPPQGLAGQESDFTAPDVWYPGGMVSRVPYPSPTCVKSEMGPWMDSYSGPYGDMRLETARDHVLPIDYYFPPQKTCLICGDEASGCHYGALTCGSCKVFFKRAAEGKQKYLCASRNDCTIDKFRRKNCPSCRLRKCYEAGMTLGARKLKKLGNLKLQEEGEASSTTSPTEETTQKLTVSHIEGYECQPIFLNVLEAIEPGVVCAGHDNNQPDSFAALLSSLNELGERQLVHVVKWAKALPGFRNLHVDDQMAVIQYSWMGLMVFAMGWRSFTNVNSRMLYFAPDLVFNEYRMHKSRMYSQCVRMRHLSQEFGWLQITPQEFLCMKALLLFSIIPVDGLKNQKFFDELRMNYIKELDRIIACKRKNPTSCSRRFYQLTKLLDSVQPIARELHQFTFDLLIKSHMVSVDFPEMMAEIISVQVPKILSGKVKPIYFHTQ
Sequence of AR / CBP ternary complex (Q92793 2-2442): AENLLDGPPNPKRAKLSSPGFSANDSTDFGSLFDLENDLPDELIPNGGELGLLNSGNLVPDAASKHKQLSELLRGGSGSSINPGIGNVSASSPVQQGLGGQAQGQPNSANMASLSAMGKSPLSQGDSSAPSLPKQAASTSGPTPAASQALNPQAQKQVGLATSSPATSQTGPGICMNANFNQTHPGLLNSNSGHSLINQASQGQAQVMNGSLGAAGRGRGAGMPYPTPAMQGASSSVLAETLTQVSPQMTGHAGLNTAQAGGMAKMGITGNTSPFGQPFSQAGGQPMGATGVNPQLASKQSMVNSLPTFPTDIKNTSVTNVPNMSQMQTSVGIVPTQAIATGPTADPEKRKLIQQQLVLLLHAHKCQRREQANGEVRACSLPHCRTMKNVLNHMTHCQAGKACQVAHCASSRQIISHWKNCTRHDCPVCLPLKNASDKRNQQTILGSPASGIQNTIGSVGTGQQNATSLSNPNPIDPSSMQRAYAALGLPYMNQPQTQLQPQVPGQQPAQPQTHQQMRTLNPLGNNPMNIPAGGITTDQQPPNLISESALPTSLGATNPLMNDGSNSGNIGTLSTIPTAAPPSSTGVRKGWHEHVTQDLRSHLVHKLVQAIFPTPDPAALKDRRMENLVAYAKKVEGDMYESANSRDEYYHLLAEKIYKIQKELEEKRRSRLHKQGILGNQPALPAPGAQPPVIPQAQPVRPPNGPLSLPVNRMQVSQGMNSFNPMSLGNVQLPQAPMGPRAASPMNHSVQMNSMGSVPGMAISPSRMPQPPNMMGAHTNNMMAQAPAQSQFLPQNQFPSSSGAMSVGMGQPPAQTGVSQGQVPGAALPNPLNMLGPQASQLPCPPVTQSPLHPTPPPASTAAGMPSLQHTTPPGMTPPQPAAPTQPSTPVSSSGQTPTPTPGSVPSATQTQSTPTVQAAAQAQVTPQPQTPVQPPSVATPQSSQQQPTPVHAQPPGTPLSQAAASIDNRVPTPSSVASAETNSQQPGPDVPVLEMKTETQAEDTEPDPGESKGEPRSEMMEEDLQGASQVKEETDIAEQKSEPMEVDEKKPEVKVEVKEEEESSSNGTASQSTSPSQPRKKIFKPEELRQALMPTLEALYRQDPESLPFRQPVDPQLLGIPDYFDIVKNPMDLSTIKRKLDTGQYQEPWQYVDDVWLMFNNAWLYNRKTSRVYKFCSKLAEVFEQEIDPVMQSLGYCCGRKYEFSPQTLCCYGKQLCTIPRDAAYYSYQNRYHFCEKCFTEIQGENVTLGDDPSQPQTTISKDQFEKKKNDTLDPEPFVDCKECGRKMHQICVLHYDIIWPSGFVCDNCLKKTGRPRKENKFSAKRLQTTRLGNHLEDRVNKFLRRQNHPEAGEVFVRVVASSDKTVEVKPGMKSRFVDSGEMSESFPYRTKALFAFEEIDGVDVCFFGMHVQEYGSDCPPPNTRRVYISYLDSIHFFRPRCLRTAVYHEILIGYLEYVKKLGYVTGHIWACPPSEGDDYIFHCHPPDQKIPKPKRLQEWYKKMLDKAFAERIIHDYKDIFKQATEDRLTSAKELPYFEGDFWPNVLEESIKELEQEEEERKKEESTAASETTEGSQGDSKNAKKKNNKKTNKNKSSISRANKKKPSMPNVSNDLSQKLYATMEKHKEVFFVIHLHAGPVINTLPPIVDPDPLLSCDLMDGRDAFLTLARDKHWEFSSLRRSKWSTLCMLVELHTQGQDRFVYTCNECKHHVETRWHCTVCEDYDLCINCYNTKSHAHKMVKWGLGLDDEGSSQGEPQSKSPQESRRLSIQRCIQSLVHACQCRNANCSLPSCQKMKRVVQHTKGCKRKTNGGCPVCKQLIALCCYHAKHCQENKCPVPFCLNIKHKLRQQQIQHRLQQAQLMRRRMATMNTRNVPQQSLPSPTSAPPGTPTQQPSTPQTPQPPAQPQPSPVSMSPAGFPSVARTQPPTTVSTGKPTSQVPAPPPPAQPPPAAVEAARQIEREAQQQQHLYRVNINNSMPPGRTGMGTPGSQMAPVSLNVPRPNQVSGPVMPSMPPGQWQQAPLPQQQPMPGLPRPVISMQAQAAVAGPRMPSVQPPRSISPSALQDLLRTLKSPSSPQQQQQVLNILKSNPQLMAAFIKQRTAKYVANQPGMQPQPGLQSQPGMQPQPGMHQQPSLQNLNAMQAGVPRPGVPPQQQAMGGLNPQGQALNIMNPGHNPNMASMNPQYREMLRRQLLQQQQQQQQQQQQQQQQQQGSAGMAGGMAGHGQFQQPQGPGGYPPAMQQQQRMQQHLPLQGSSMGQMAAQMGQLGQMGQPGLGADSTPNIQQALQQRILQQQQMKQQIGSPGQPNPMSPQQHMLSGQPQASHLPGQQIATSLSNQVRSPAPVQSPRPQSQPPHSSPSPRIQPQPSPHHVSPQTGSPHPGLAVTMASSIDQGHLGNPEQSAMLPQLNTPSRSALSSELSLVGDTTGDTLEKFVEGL

SMILES	IC50 (VCaP cells) [nM]	EC50 (AR / CBP ternary complex; [1]) [nM]	EC50 (AR / CBP ternary complex; read-out: Average Ternary Complex, treated 1.5 hours, rabbit CBP or p300 antibody detection) [nM]
CC(=O)N1CCc2c(c(N3CCCc4cc(-c5cnn(C)c5)c(C(F)F)cc43)nn2C2CCC3(CC2)CCN(C2CN(c4ccc(C(=O)NC5CCC(Oc6ccc(C#N)c(Cl)c6)CC5)nn4)C2)CC3)C1 (stereo not drawn) [Compound 197, 6-[3-[9-[5-acetyl-3-[7-(difluoromethyl)-6-(1-methylpyrazol-4-yl)-3,4-dihydro-2H-quinolin-1-yl]-6,7-dihydro-4H-pyrazolo[4,3-c]pyridin-1-yl]-3-azaspiro[5.5]undecan-3-yl]azetidin-1-yl]-N-[4-(3-chloro-4-cyanophenoxy)cyclohexyl]pyridazine-3-carboxamide]	≤ 0.1	< 1	
CC(=O)N1CCc2c(c(N3CCCc4cc(-c5cnn(C)c5)c(C(F)F)cc43)nn2C2CCN(C3CCN(c4ccc(C(=O)N[C@H]5CC[C@H](Oc6ccc(C#N)c(Cl)c6)CC5)nn4)CC3(F)F)CC2)C1 (stereo partly drawn) [Compound 198, 6-[4-[4-[5-acetyl-3-[7-(difluoromethyl)-6-(1-methylpyrazol-4-yl)-3,4-dihydro-2H-quinolin-1-yl]-6,7-dihydro-4H-pyrazolo[4,3-c]pyridin-1-yl]-1-piperidyl]-3,3-difluoro-1-piperidyl]-N-[4-(3-chloro-4-cyano-phenoxy)cyclohexyl]pyridazine-3-carboxamide]	≤ 0.1	< 1	
CC(=O)N1CCc2c(c(N3CCCc4cc(-c5cnn(C)c5)c(C(F)F)cc43)nn2C2CCN([C@@H]3CCN(c4ccc(C(=O)N[C@H]5CC[C@H](Oc6ccc(C#N)c(Cl)c6)CC5)nn4)C[C@@H]3C)CC2)C1 [Compound 200]	≤ 0.1	< 1	
CC(=O)N1CCc2c(c(N3CCCc4cc(-c5cnn(C)c5)c(C(F)F)cc43)nn2C2CCN(C3(C)CCN(c4ccc(C(=O)N[C@H]5CC[C@H](Oc6ccc(C#N)c(Cl)c6)CC5)nn4)CC3)CC2)C1 [Compound 201, 6-[4-[4-[5-acetyl-3-[7-(difluoromethyl)-6-(1-methylpyrazol-4-yl)-3,4-dihydro-2H-quinolin-1-yl]-6,7-dihydro-4H-pyrazolo[4,3-c]pyridin-1-yl]-1-piperidyl]-4-methyl-1-piperidyl]-N-[4-(3-chloro-4-cyano-phenoxy)cyclohexyl]pyridazine-3-carboxamide]	≤ 0.1	< 1	
CC(=O)N1CCc2c(c(N3CCCc4cc(-c5cnn(C)c5)c(C(F)F)cc43)nn2[C@H]2CC[C@@H](OC3CCN(c4ccc(C(=O)N[C@H]5CC[C@H](Oc6ccc(C#N)c(Cl)c6)CC5)nn4)CC3)CC2)C1 [Compound 204, 6-[4-[4-[5-acetyl-3-[7-(difluoromethyl)-6-(1-methylpyrazol-4-yl)-3,4-dihydro-2H-quinolin-1-yl]-6,7-dihydro-4H-pyrazolo[4,3-c]pyridin-1-yl]cyclohexoxy]-1-piperidyl]-N-[4-(3-chloro-4-cyano-phenoxy)cyclohexyl]pyridazine-3-carboxamide]	≤ 0.1	< 1	
CC(=O)N1CCc2c(c(N3CCCc4cc(-c5cnn(C)c5)c(C(F)F)cc43)nn2[C@H]2CC[C@H](OC3CCN(c4ccc(C(=O)N[C@H]5CC[C@H](Oc6ccc(C#N)c(Cl)c6)CC5)nn4)CC3)CC2)C1 [Compound 205, 6-[4-[4-[5-acetyl-3-[7-(difluoromethyl)-6-(1-methylpyrazol-4-yl)-3,4-dihydro-2H-quinolin-1-yl]-6,7-dihydro-4H-pyrazolo[4,3-c]pyridin-1-yl]cyclohexoxy]-1-piperidyl]-N-[4-(3-chloro-4-cyano-phenoxy)cyclohexyl]pyridazine-3-carboxamide]	≤ 0.1	< 1	
CC(=O)N1CCc2c(c(N3CCCc4cc(-c5cnn(C)c5)c(C(F)F)cc43)nn2C2CCN(C3CN(c4ccc(C(=O)N[C@H]5CC[C@H](Oc6ccc(C#N)c(Cl)c6)CC5)nn4)C3)CC2)C1 [Compound 206, 6-[3-[4-[5-acetyl-3-[7-(difluoromethyl)-6-(1-methylpyrazol-4-yl)-3,4-dihydro-2H-quinolin-1-yl]-6,7-dihydro-4H-pyrazolo[4,3-c]pyridin-1-yl]-1-piperidyl]azetidin-1-yl]-N-[4-(3-chloro-4-cyano-phenoxy)cyclohexyl]pyridazine-3-carboxamide]	≤ 0.1	< 1	
CC(=O)N1CCc2c(c(N3CCCc4cc(-c5cnn(C)c5)c(C(F)F)cc43)nn2C2CCC3(CC2)CC(N2CCN(c4ccc(C(=O)N[C@H]5CC[C@H](Oc6ccc(C#N)c(Cl)c6)CC5)nn4)CC2)C3)C1 (stereo partly drawn) [Compound 208, 6-[4-[7-[5-acetyl-3-[7-(difluoromethyl)-6-(1-methylpyrazol-4-yl)-3,4-dihydro-2H-quinolin-1-yl]-6,7-dihydro-4H-pyrazolo[4,3-c]pyridin-1-yl]spiro[3.5]nonan-2-yl]piperazin-1-yl]-N-[4-(3-chloro-4-cyano-phenoxy)cyclohexyl]pyridazine-3-carboxamide]	≤ 0.1		< 1
CC(=O)N1CCc2c(c(N3CCCc4cc(-c5cnn(C)c5)c(C(F)F)cc43)nn2[C@H]2CC[C@H](CN3CCN(c4ccc(C(=O)N[C@H]5CC[C@H](Oc6ccc(C#N)c(Cl)c6)CC5)nn4)CC3)CC2)C1 [Compound 209, 6-[4-[[4-[5-acetyl-3-[7-(difluoromethyl)-6-(1-methylpyrazol-4-yl)-3,4-dihydro-2H-quinolin-1-yl]-6,7-dihydro-4H-pyrazolo[4,3-c]pyridin-1-yl]cyclohexyl]methyl]piperazin-1-yl]-N-[4-(3-chloro-4-cyano-phenoxy)cyclohexyl]pyridazine-3-carboxamide]	≤ 0.1	< 1	
CC(=O)N1CCc2c(c(N3CCCc4cc(-c5cnn(C)c5)c(C(F)F)cc43)nn2[C@H]2CC[C@@H](CN3CCN(c4ccc(C(=O)N[C@H]5CC[C@H](Oc6ccc(C#N)c(Cl)c6)CC5)nn4)CC3)CC2)C1 [Compound 210, 6-[4-[[4-[5-acetyl-3-[7-(difluoromethyl)-6-(1-methylpyrazol-4-yl)-3,4-dihydro-2H-quinolin-1-yl]-6,7-dihydro-4H-pyrazolo[4,3-c]pyridin-1-yl]cyclohexyl]methyl]piperazin-1-yl]-N-[4-(3-chloro-4-cyano-phenoxy)cyclohexyl]pyridazine-3-carboxamide]	≤ 0.1	< 1	
CC(=O)N1CCc2c(c(N3CCCc4cc(-c5ccc(N6CC(N7CCN(c8ccc(C(=O)N[C@H]9CC[C@H](Oc%10ccc(C#N)c(Cl)c%10)CC9)nn8)CC7)C6)nc5)c(C(F)F)cc43)nn2C2CCOCC2)C1 [Compound 216]	≤ 0.1	< 1	
CC(=O)N1CCc2c(c(N3CCCc4cc(-c5cnn(C)c5)c(C(F)F)cc43)nn2C2CCN(CC3C(C)CN(c4ccc(C(=O)N[C@H]5CC[C@H](Oc6ccc(C#N)c(Cl)c6)CC5)nn4)CC3C)CC2)C1 (stereo partly drawn) [Compound 217, 6-[4-[[4-[5-acetyl-3-[7-(difluoromethyl)-6-(1-methylpyrazol-4-yl)-3,4-dihydro-2H-quinolin-1-yl]-6,7-dihydro-4H-pyrazolo[4,3-c]pyridin-1-yl]-1-piperidyl]methyl]-3,5-dimethyl-1-piperidyl]-N-[4-(3-chloro-4-cyano-phenoxy)cyclohexyl]pyridazine-3-carboxamide]	≤ 0.1	< 1	
